Data published in patent US10238670B2, “9-aminomethyl minocycline compounds and methods of use thereof in urinary tract infection (UTI) treatment” (Paratek Pharmaceuticals, Inc., priority 2016, dated 2019).
Read-outs that look alike come from different tables or passages of the source.

Assay: Phase 1b study in female adults with cystitis, urine PK
Assay type: in vivo, human
Details: for Ae0-24 (amount excreted in urine): mean; for clearance: female, human, urine and plasma
Protocol: Urine was collected, the volume recorded, and analyzed for Compound 1 concentration at the following times: • Day 1 to 2: pooled total urine 0 to 4, 4 to 8, 8 to 12, and 12-24 hours after the t=0 h dose; Collection of the 12 to 24 h sample should be completed prior to the t=24 h dose on Day 2; • Day 5 to 6: pooled total urine 0 to 4, 4 to 8, 8 to 12, and 12-24 hours after the t=96 h dose;
Urine was pooled during the intervals above. At the end of each interval, the time and total volume were recorded.
Compound 1 urine concentration data was used to determine the amount excreted in a dosing interval, the urinary excretion rate, and, in conjunction with the plasma concentration data, to estimate the renal clearance (CLr) of Compound 1.
Urine was collected and the volume recorded at the following times: • Day 1 to 2: pooled total urine 0 to 4, 4 to 8, 8 to 12, and 12-24 hours after the t=0 h dose; • Day 5 to 6: pooled total urine 0 to 4, 4 to 8, 8 to 12, and 12-24 hours after the t=96 h dose;
At the end of each collection time period the pooled urine was frozen at −20° C. or colder and the total volume of urine collected for the time period was recorded. The samples were kept frozen at −20° C. or colder pending shipment to the bioanalytical laboratory.
The urine sample volume, its Compound 1 concentration, the amount of Compound 1 excreted in the urine (product of volume and concentration) over a dosing interval, the urinary excretion rates and renal clearance (CLr) of Compound 1 following the initial Day 1 and final Day 5 doses were summarized by the treatment groups.

[1] = Day 1, 0-4 hour Post t = 0, IV_PO300
[2] = Day 1, 0-4 hour Post t = 0, PO300
[3] = Day 1, 0-4 hour Post t = 0, PO450
[4] = Day 1, 4-8 hour Post t = 0, IV_PO300
[5] = Day 1, 4-8 hour Post t = 0, PO300
[6] = Day 1, 4-8 hour Post t = 0, PO450
[7] = Day 1, 8-12 hour Post t = 0, IV_PO300
[8] = Day 1, 8-12 hour Post t = 0, PO300
[9] = Day 1, 8-12 hour Post t = 0, PO450
[10] = Day 1-2, 12-24 hour Post t = 0, IV_PO300
[11] = Day 1-2, 12-24 hour Post t = 0, PO300
[12] = Day 1-2, 12-24 hour Post t = 0, PO450
[13] = Day 1, 200 mg IV, 300 mg po (n = 11)
[14] = Day 5, 0-4 hour Post t = 96, IV_PO300
[15] = Day 5, 0-4 hour Post t = 96, PO300
[16] = Day 5, 0-4 hour Post t = 96, PO450
[17] = Day 5, 4-8 hour Post t = 96, IV_PO300
[18] = Day 5, 4-8 hour Post t = 96, PO300
[19] = Day 5, 4-8 hour Post t = 96, PO450
[20] = Day 5, 8-12 hour Post t = 96, IV_PO300
[21] = Day 5, 8-12 hour Post t = 96, PO300
[22] = Day 5, 8-12 hour Post t = 96, PO450
[23] = Day 5-6, 12-24 hour Post t = 96, IV_PO300
[24] = Day 5-6, 12-24 hour Post t = 96, PO300
[25] = Day 5-6, 12-24 hour Post t = 96, PO450
[26] = Day 5, 200 mg IV, 300 mg po (n = 11)

**Q.** What does the source list for `CN(C)c1cc(CNCC(C)(C)C)c(O)c2c1C[C@H]1C[C@H]3[C@H](N(C)C)C(O)=C(C(N)=O)C(=O)[C@@]3(O)C(O)=C1C2=O` [Compound 1, 9-[(2,2-dimethyl-propylamino)-methyl]-minocycline]?
**A.** Urine Concentration, Mean [1]: 65360.0 ng/mL; Urine Concentration, Median [1]: 55000.0 ng/mL; Urine Concentration, Mean [2]: 14003.0 ng/mL; Urine Concentration, Median [2]: 14020.0 ng/mL; Urine Concentration, Mean [3]: 23008.0 ng/mL; Urine Concentration, Median [3]: 10500.0 ng/mL; Urine Concentration, Mean [4]: 43548.2 ng/mL; Urine Concentration, Median [4]: 40900.0 ng/mL; Urine Concentration, Mean [5]: 19088.9 ng/mL; Urine Concentration, Median [5]: 16800.0 ng/mL; Urine Concentration, Mean [6]: 20537.8 ng/mL; Urine Concentration, Median [6]: 15500.0 ng/mL; Urine Concentration, Mean [7]: 32407.3 ng/mL; Urine Concentration, Median [7]: 33700.0 ng/mL; Urine Concentration, Mean [8]: 19981.0 ng/mL; Urine Concentration, Median [8]: 13650.0 ng/mL; Urine Concentration, Mean [9]: 11699.0 ng/mL; Urine Concentration, Median [9]: 8995.0 ng/mL; Urine Concentration, Mean [10]: 22410.0 ng/mL; Urine Concentration, Median [10]: 19300.0 ng/mL; Urine Concentration, Mean [11]: 20772.0 ng/mL; Urine Concentration, Median [11]: 21300.0 ng/mL; Urine Concentration, Mean [12]: 25713.0 ng/mL; Urine Concentration, Median [12]: 19550.0 ng/mL; fe0-24 [dose absorbed] [13]: 20.4%; fe0-24 [dose administered] [13]: 20.4%; Ae0-24 (amount excreted in urine) (Day 1, 200 mg IV, 300 mg po (n = 11), total dose 200 IV): 40.70 mg; fe0-24 [dose absorbed] (Day 1, 300 mg po (n = 10)): 18.7%; fe0-24 [dose administered] (Day 1, 300 mg po (n = 10)): 6.5%; Ae0-24 (amount excreted in urine) (Day 1, 300 mg po (n = 10), total dose 600 po): 39.24 mg; fe0-24 [dose absorbed] (Day 1, 450 mg po (n = 10)): 11.4%; fe0-24 [dose administered] (Day 1, 450 mg po (n = 10)): 4.0%; Ae0-24 (amount excreted in urine) (Day 1, 450 mg po (n = 10), total dose 900 po): 35.95 mg; Urine Concentration, Mean [14]: 42710.0 ng/mL; Urine Concentration, Median [14]: 26250.0 ng/mL; Urine Concentration, Mean [15]: 30900.0 ng/mL; Urine Concentration, Median [15]: 26850.0 ng/mL; Urine Concentration, Mean [16]: 35988.9 ng/mL; Urine Concentration, Median [16]: 25700.0 ng/mL; Urine Concentration, Mean [17]: 26090.0 ng/mL; Urine Concentration, Median [17]: 28500.0 ng/mL; Urine Concentration, Mean [18]: 29111.1 ng/mL; Urine Concentration, Median [18]: 18200.0 ng/mL; Urine Concentration, Mean [19]: 48117.0 ng/mL; Urine Concentration, Median [19]: 33700.0 ng/mL; Urine Concentration, Mean [20]: 33237.0 ng/mL; Urine Concentration, Median [20]: 14850.0 ng/mL; Urine Concentration, Mean [21]: 25350.0 ng/mL; Urine Concentration, Median [21]: 19600.0 ng/mL; Urine Concentration, Mean [22]: 30466.0 ng/mL; Urine Concentration, Median [22]: 20600.0 ng/mL; Urine Concentration, Mean [23]: 21480.0 ng/mL; Urine Concentration, Median [23]: 12590.0 ng/mL; Urine Concentration, Mean [24]: 17940.0 ng/mL; Urine Concentration, Median [24]: 16000.0 ng/mL; Urine Concentration, Mean [25]: 30280.0 ng/mL; Urine Concentration, Median [25]: 23400.0 ng/mL; fe0-24 [dose absorbed] [26]: 30.7%; fe0-24 [dose administered] [26]: 10.8%; Ae0-24 (amount excreted in urine) (Day 5, 200 mg IV, 300 mg po (n = 11), total dose 300 po): 32.27 mg; fe0-24 [dose absorbed] (Day 5, 300 mg po (n = 10)): 36.4%; fe0-24 [dose administered] (Day 5, 300 mg po (n = 10)): 12.7%; Ae0-24 (amount excreted in urine) (Day 5, 300 mg po (n = 10), total dose 300 po): 38.21 mg; fe0-24 [dose absorbed] (Day 5, 450 mg po (n = 10)): 34.8%; fe0-24 [dose administered] (Day 5, 450 mg po (n = 10)): 12.2%; Ae0-24 (amount excreted in urine) (Day 5, 450 mg po (n = 10), total dose 450 po): 54.87 mg; clearance (intravenous, 200 mg, Day 1, IV_PO300, read-out: Renal CL, Geo. Mean (converted)): 33 mL/min; clearance (intravenous, 200 mg, Day 1, IV_PO300, read-out: Renal CL, Mean (converted)): 38.3 mL/min; clearance (intravenous, 200 mg, Day 1, IV_PO300, read-out: Renal CL, Median (converted)): 27.2 mL/min; clearance (oral, 300 mg, Day 5, IV_PO300, read-out: Renal CL, Geo. Mean (converted)): 63 mL/min; clearance (oral, 300 mg, Day 5, IV_PO300, read-out: Renal CL, Mean (converted)): 94.6 mL/min; clearance (oral, 300 mg, Day 5, IV_PO300, read-out: Renal CL, Median (converted)): 44 mL/min; clearance (oral, 300 mg, Day 5, PO300, read-out: Renal CL, Geo. Mean (converted)): 57.4 mL/min; clearance (oral, 300 mg, Day 5, PO300, read-out: Renal CL, Mean (converted)): 78.2 mL/min; clearance (oral, 300 mg, Day 5, PO300, read-out: Renal CL, Median (converted)): 58.6 mL/min; clearance (oral, 450 mg, Day 5, PO450, read-out: Renal CL, Geo. Mean (converted)): 21.5 mL/min; clearance (oral, 450 mg, Day 5, PO450, read-out: Renal CL, Mean (converted)): 29.1 mL/min; clearance (oral, 450 mg, Day 5, PO450, read-out: Renal CL, Median (converted)): 27.8 mL/min; Ae 0-4 hrs, Geo. Mean (urine, Day 1, IV_PO300): 11.59 mg; Ae 0-4 hrs, Mean (urine, Day 1, IV_PO300): 13.80 mg; Ae 0-4 hrs, Median (urine, Day 1, IV_PO300): 9.74 mg; Ae 0-24 hrs, Geo. Mean (urine, Day 1, IV_PO300): 36.98 mg; Ae 0-24 hrs, Median (urine, Day 1, IV_PO300): 41.40 mg; Ae 4-8 hrs, Geo. Mean (urine, Day 1, IV_PO300): 7.28 mg; Ae 4-8 hrs, Mean (urine, Day 1, IV_PO300): 8.61 mg; Ae 4-8 hrs, Median (urine, Day 1, IV_PO300): 7.96 mg; Ae 8-12 hrs, Geo. Mean (urine, Day 1, IV_PO300): 5.53 mg; Ae 8-12 hrs, Mean (urine, Day 1, IV_PO300): 6.80 mg; Ae 8-12 hrs, Median (urine, Day 1, IV_PO300): 6.17 mg; Ae 12-24 hrs, Geo. Mean (urine, Day 1, IV_PO300): 12.70 mg
